According to patent US12459899B2, “Isoquinolinone derivatives, method for preparing the same, and pharmaceutical composition for preventing or treating poly(ADP-ribose) polymerase-1-related diseases, comprising the same as active ingredient” (DIGMBIO. INC., priority 2019, dated 2025):
pIC50: −log10 of the molar value. Read-outs that look alike come from different tables or passages of the source.

Target: PARP-1 (poly[ADP-ribose] polymerase 1) enzyme (Homo sapiens (Human), UniProt P09874)
Experiment: PARP-1 (poly[ADP-ribose] polymerase 1) enzyme inhibitory ability, Trevigen assay kit
Format: biochemical
Conditions: for pIC50: PARP-1 enzyme activity
Protocol: In order to evaluate the PARP-1 (poly[ADP-ribose] polymerase 1) enzyme inhibitory ability of the compounds according to the present invention, an experiment was conducted as follows.
Specifically, in order to evaluate the PARP-1 (poly[ADP-ribose] polymerase 1) enzyme inhibitory ability of the compounds of Examples 1 to 276 according to the present invention, the PARP-1 (poly[ADP-ribose] polymerase 1) activity was investigated in the following manner using an assay kit purchased from Trevigen, Inc. (Catalog number: 4677-096-K). 50 μL of 1×PARP buffer (provided by Trevigen's kit) was dispensed into a 96-well plate coated with histones per each well, and then rehydrated for 30 minutes. After removing the 1×PARP buffer present in the well, PARP-1 (poly[ADP-ribose] polymerase 1) enzyme (0.5 unit/well) and 1 μM concentration or various concentrations of the compounds of Example 1 to 276 were added at room temperature and reacted for 10 minutes. Thereafter, each well was treated with 25 μL of 1×PARP cocktail (biotinylated NAD, activated DNA, provided by Trevigen's kit), and then reacted at room temperature for 1 hour. After the reaction was completed, each well was washed twice with PBS (7.5 mM Na2HPO4, 2.5 mM NaH2PO4, 145 mM NaCl) containing 0.1% triton X-100, and washed twice with PBS. Then, 50 μL of strep-HRP (streptavidin-linked peroxidase) was added and reacted at room temperature for 1 hour, and then washed twice with PBS containing 0.1% triton X-100, and washed twice with PBS. After removing all PBS, 50 μL of TACS-sapphire, a substrate, was added, and reacted at room temperature for 15 minutes while blocking the light. After the reaction was terminated by treatment with 50 μL of 5% phosphoric acid to each well, the absorbance was measured at 450 nm using a microplate reader Victor3 from PerkinElmer, Inc. to quantify the value.

[1] = 1 nM compound, read-out: PAR P-1 Inhibitory ability at 1 nM

Sequence of PARP-1 (poly[ADP-ribose] polymerase 1) enzyme (P09874 whole entry): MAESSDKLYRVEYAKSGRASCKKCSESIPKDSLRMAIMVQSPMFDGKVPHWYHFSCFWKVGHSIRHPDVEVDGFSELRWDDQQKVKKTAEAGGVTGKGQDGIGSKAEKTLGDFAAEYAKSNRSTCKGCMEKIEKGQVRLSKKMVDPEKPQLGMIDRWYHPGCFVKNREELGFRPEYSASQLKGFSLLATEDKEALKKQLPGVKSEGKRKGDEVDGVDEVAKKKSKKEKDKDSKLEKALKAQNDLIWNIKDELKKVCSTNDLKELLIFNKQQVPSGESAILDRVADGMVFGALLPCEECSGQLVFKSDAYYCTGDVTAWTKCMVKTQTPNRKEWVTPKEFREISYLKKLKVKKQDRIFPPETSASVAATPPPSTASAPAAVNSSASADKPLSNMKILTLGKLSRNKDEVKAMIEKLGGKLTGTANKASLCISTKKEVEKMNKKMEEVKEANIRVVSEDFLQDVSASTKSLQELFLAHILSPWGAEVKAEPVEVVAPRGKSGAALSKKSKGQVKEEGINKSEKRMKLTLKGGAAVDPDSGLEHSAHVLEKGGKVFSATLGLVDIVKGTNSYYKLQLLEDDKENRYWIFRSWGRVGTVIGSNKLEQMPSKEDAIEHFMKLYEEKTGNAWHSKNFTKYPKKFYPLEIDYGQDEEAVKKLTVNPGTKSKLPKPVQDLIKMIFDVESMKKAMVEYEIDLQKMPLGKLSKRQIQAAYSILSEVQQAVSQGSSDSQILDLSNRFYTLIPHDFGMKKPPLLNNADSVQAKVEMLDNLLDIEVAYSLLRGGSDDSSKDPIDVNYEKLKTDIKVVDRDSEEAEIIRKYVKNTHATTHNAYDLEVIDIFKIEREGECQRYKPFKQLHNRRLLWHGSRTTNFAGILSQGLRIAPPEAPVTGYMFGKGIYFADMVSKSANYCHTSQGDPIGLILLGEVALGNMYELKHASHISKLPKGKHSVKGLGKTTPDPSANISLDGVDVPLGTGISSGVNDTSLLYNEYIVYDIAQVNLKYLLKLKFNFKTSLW

Cc1ccc(F)c2c(=O)[nH]c(CCCN3CCN(c4ccc(Cl)cc4)CC3)cc12 [Example 33, 3-(3-(4-(4-chlorophenyl)piperazin-1-yl)propyl)-8-fluoro-5-methylisoquinolin-1(2H)-one] was tested, and the inhibition at 0.001 µM [1] was < 50%.

For Cc1cc(F)cc2c(=O)[nH]c(CCCN3CCN(c4ccc(C#N)cc4)CC3)cc12 [Example 34, 4-(4-(3-(7-fluoro-5-methyl-1-oxo-1,2-dihydroisoquinolin-3-yl)propyl)piperazin-1-yl)benzonitrile], the inhibition at 0.001 µM [1] was < 50%.

For Cc1cc(F)cc2c(=O)[nH]c(CCCN3CCN(c4ccc(C#N)nc4)CC3)cc12 [Example 35, 5-(4-(3-(7-fluoro-5-methyl-1-oxo-1,2-dihydroisoquinolin-3-yl)propyl)piperazin-1-yl)picolinonitrile], the inhibition at 0.001 µM [1] was < 50%.

Cc1cc(F)cc2c(=O)[nH]c(CCCN3CCN(c4ccc(C#N)cn4)CC3)cc12 [Example 36, 6-(4-(3-(7-fluoro-5-methyl-1-oxo-1,2-dihydroisoquinolin-3-yl)propyl)piperazin-1-yl)nicotinonitrile] gave an inhibition at 0.001 µM [1] of 50 to 80%.

For Cc1cc(F)cc2c(=O)[nH]c(CCCN3CCN(c4ccc(C#N)cc4F)CC3)cc12 [Example 37, 3-fluoro-4-(4-(3-(7-fluoro-5-methyl-1-oxo-1,2-dihydroisoquinolin-3-yl)propyl)piperazin-1-yl)benzonitrile], the inhibition at 0.001 µM [1] was < 50%.

In the case of Cc1cc(F)cc2c(=O)[nH]c(CCCN3CCN(c4ccc(C#N)c(F)c4)CC3)cc12 [Example 38, 2-fluoro-4-(4-(3-(7-fluoro-5-methyl-1-oxo-1,2-dihydroisoquinolin-3-yl)propyl)piperazin-1-yl)benzonitrile], the inhibition at 0.001 µM [1] was < 50%.

In the case of Cc1cc(F)cc2c(=O)[nH]c(CCCN3CCN(c4ccc(C(F)(F)F)cc4)CC3)cc12 [Example 39, 7-fluoro-5-methyl-3-(3-(4-(4-(trifluoromethyl)phenyl)piperazin-1-yl)propyl)isoquinolin-1(2H)-one], the inhibition at 0.001 µM [1] was < 50%.

Work on Cc1cc(F)cc2c(=O)[nH]c(CCCN3CCN(c4ccc(F)cc4)CC3)cc12 [Example 40, 7-fluoro-3-(3-(4-(4-fluorophenyl)piperazin-1-yl)propyl)-5-methylisoquinolin-1(2H)-one] yielded an inhibition at 0.001 µM [1] of 50 to 80%.

In the case of N#Cc1ccc(C2=CCN(CCCc3cc4cccc(F)c4c(=O)[nH]3)CC2)cc1 [Example 41, 4-(1-(3-(8-fluoro-1-oxo-1,2-dihydroisoquinolin-3-yl)propyl)-1,2,3,6-tetrahydropyridin-4-yl)benzonitrile], the inhibition at 0.001 µM [1] was 50 to 80%.

With O=c1[nH]c(CCCN2CC=C(c3ccc(F)cc3)CC2)cc2cccc(F)c12 [Example 42, 8-fluoro-3-(3-(4-(4-fluorophenyl)-3,6-dihydropyridin-1(2H)-yl)propyl)isoquinolin-1(2H)-one] the inhibition at 0.001 µM [1] was 50 to 80%.

In the case of O=c1[nH]c(CCCN2CC=C(c3ccc(F)nc3)CC2)cc2cccc(F)c12 [Example 43], the inhibition at 0.001 µM [1] was < 50%.

For O=c1[nH]c(CCCN2CC=C(c3ccc(F)cn3)CC2)cc2cccc(F)c12 [Example 44, 8-fluoro-3-(3-(5-fluoro-3′,6′-dihydro-[2,4′-bipyridine]-1′(2′H)-yl)propyl)isoquinolin-1(2H)-one], the inhibition at 0.001 µM [1] was < 50%.

Work on O=c1[nH]c(CCCN2CC=C(c3ccc(C(F)(F)F)cc3)CC2)cc2cccc(F)c12 [Example 45, 8-fluoro-3-(3-(4-(4-(trifluoromethyl)phenyl)-3,6-dihydropyridin-1(2H)-yl)propyl)isoquinolin-1(2H)-one] yielded an inhibition at 0.001 µM [1] of 50 to 80%.

N#Cc1ccc(C2=CCN(CCCc3cc4ccc(F)cc4c(=O)[nH]3)CC2)cc1 [Example 47, 4-(1-(3-(7-fluoro-1-oxo-1,2-dihydroisoquinolin-3-yl)propyl)-1,2,3,6-tetrahydropyridin-4-yl)benzonitrile] was tested, and the inhibition at 0.001 µM (1 nM (Table 2), read-out: inhibited PARP-1 enzyme activity) was ≥ 80% and the inhibition at 0.001 µM [1] was > 80%.

With O=c1[nH]c(CCCN2CC=C(c3ccc(F)cc3)CC2)cc2ccc(F)cc12 [Example 48, 7-fluoro-3-(3-(4-(4-fluorophenyl)-3,6-dihydropyridin-1(2H)-yl)propyl)isoquinolin-1(2H)-one] the inhibition at 0.001 µM [1] was < 50% and the pIC50 was 8.88.

In the case of O=c1[nH]c(CCCN2CC=C(c3ccc(Cl)cc3)CC2)cc2ccc(F)cc12 [Example 49, 3-(3-(4-(4-chlorophenyl)-3,6-dihydropyridin-1(2H)-yl)propyl)-7-fluoroisoquinolin-1(2H)-one], the inhibition at 0.001 µM [1] was < 50% and the pIC50 was 8.45.

In the case of N#Cc1ccc(C2=CCN(CCCc3cc4ccc(F)cc4c(=O)[nH]3)CC2)nc1 [Example 50, 1′-(3-(7-fluoro-1-oxo-1,2-dihydroisoquinolin-3-yl)propyl)-1′,2′,3′,6′-tetrahydro-[2,4′-bipyridine]-5-carbonitrile], the inhibition at 0.001 µM [1] was < 50% and the pIC50 was 8.73.

With N#Cc1ccc(C2=CCN(CCCc3cc4ccc(F)cc4c(=O)[nH]3)CC2)cc1F [Example 52, 2-fluoro-4-(1-(3-(7-fluoro-1-oxo-1,2-dihydroisoquinolin-3-yl)propyl)-1,2,3,6-tetrahydropyridin-4-yl)benzonitrile] the inhibition at 0.001 µM [1] was < 50%.

Cc1ccc(F)c2c(=O)[nH]c(CCCN3CC=C(c4ccc(F)cc4)CC3)cc12 [Example 53, 8-fluoro-3-(3-(4-(4-fluorophenyl)-3,6-dihydropyridin-1(2H)-yl)propyl)-5-methylisoquinolin-1(2H)-one] was tested, and the inhibition at 0.001 µM [1] was < 50%.

In the case of Cc1ccc(F)c2c(=O)[nH]c(CCCN3CC=C(c4ccc(C#N)cc4)CC3)cc12 [Example 54, 4-(1-(3-(8-fluoro-5-methyl-1-oxo-1,2-dihydroisoquinolin-3-yl)propyl)-1,2,3,6-tetrahydropyridin-4-yl)benzonitrile], the inhibition at 0.001 µM [1] was < 50% and the pIC50 was 8.85.

Cc1ccc(F)c2c(=O)[nH]c(CCCN3CC=C(c4ccc(C#N)c(F)c4)CC3)cc12 [Example 55, 2-fluoro-4-(1-(3-(8-fluoro-5-methyl-1-oxo-1,2-dihydroisoquinolin-3-yl)propyl)-1,2,3,6-tetrahydropyridin-4-yl)benzonitrile] showed an inhibition at 0.001 µM [1] of 50 to 80% and a pIC50 of 8.75.

Cc1ccc(F)c2c(=O)[nH]c(CCCN3CC=C(c4ccc([N+](=O)[O-])cc4F)CC3)cc12 [Example 56, 8-fluoro-3-(3-(4-(2-fluoro-4-nitrophenyl)-3,6-dihydropyridin-1(2H)-yl)propyl)-5-methylisoquinolin-1(2H)-one] was tested, and the inhibition at 0.001 µM [1] was < 50%.

In the case of Cc1ccc(F)c2c(=O)[nH]c(CCCN3CC=C(c4ccc(C#N)cn4)CC3)cc12 [Example 57, 1′-(3-(8-fluoro-5-methyl-1-oxo-1,2-dihydroisoquinolin-3-yl)propyl)-1′,2′,3′,6′-tetrahydro-[2,4′-bipyridine]-5-carbonitrile], the inhibition at 0.001 µM [1] was 50 to 80% and the pIC50 was 9.04.

Cc1cc(F)cc2c(=O)[nH]c(CCCN3CC=C(c4ccc(C#N)cc4)CC3)cc12 [Example 58, 4-(1-(3-(7-fluoro-5-methyl-1-oxo-1,2-dihydroisoquinolin-3-yl)propyl)-1,2,3,6-tetrahydropyridin-4-yl)benzonitrile] showed an inhibition at 0.001 µM [1] of 50 to 80% and a pIC50 of 8.75.

In the case of Cc1cc(F)cc2c(=O)[nH]c(CCCN3CC=C(c4ccc(F)cc4)CC3)cc12 [Example 59, 7-fluoro-3-(3-(4-(4-fluorophenyl)-3,6-dihydropyridin-1(2H)-yl)propyl)-5-methylisoquinolin-1(2H)-one], the inhibition at 0.001 µM [1] was < 50%.

Cc1cc(F)cc2c(=O)[nH]c(CCCN3CC=C(c4ccc(C#N)cn4)CC3)cc12 [Example 60, 1′-(3-(7-fluoro-5-methyl-1-oxo-1,2-dihydroisoquinolin-3-yl)propyl)-1′,2′,3′,6′-tetrahydro-[2,4′-bipyridine]-5-carbonitrile] was tested, and the inhibition at 0.001 µM [1] was < 50%.

In the case of Cc1cc(F)cc2c(=O)[nH]c(CCCN3CC=C(c4ccc(F)cn4)CC3)cc12 [Example 62, 7-fluoro-3-(3-(5-fluoro-3′,6′-dihydro-[2,4′-bipyridine]-1′(2′H)-yl)propyl)-5-methylisoquinolin-1(2H)-one], the inhibition at 0.001 µM [1] was < 50%.

Cc1cc(F)cc2c(=O)[nH]c(CCCN3CC=C(c4ccc(F)nc4)CC3)cc12 [Example 63, 7-fluoro-3-(3-(6-fluoro-3′,6′-dihydro-[3,4′-bipyridine]-1′(2′H)-yl)propyl)-5-methylisoquinolin-1(2H)-one] was tested, and the inhibition at 0.001 µM [1] was < 50%.

With Cc1cc(F)cc2c(=O)[nH]c(CCCN3CC=C(c4ccc(C(F)(F)F)cc4)CC3)cc12 [Example 64, 7-fluoro-5-methyl-3-(3-(4-(4-(trifluoromethyl)phenyl)-3,6-dihydropyridin-1(2H)-yl)propyl)isoquinolin-1(2H)-one] the inhibition at 0.001 µM [1] was < 50%.

Cc1ccc(F)c2c(=O)[nH]c(CCCN3CCN(C(=O)c4cccc(F)c4)CC3)cc12 [Example 65, 8-fluoro-3-(3-(4-(3-fluorobenzoyl)piperazin-1-yl)propyl)-5-methylisoquinolin-1(2H)-one] was tested, and the inhibition at 0.001 µM [1] was < 50%.

With Cc1ccc(F)c2c(=O)[nH]c(CCCN3CCN(C(=O)c4ccccc4)CC3)cc12 [Example 66, 3-(3-(4-benzoylpiperazin-1-yl)propyl)-8-fluoro-5-methylisoquinolin-1(2H)-one] the inhibition at 0.001 µM [1] was < 50%.
